Measurements from patent publication US20150125406A1, “TOPICAL SKIN CARE COMPOSITION” (JAFER LIMITED, priority 2012, published 2015).

Experiments:
Format in all cases: cell-based
[1] = test system: B16 melanocytes; experiment: Cell numbers by sulforhodamine B method, Study II; conditions: 20X dilution of dilute stock solutions; 72 hours
Description: (§1) Cells (B16 melanocytes) were plated in phenol-free Dulbecco's Modified Eagle's Medium (DMEM) supplemented with 5% fetal bovine serum (FBS) at 10,000 cells/well. After 24 hours, test material was added and the cells were incubated with the test material for 48 hours. The melanin was quantified by instrumentally measuring absorbance with a BIORAD microplate spectrophotometer 3550-UV at 490 nanometers. Cultures were also photographed (CANON REBEL digital camera). Statistical significance of the values was calculated using paired t-test and threshold statistical significance was fixed at p=0.05 and 15% difference as compare to the water control group. Cell numbers were measured using a sulforhodamine B method (described by Skehan et al, “New colorimetric cytotoxicity assay for anticancer-drug screening”, J. Natl Cancer Inst., 82:1107, 1990, the relevant disclosures of which are incorporated herein by reference). The colorimetric signal proportional to cell numbers was acquired with the microplate spectrophotometer 3550-UV at 550 nanometers.
Following the general procedure of Study I, a further set of dilute aqueous stock solutions was prepared containing each component individually (Compositions 6M-O in Table 10). A stock solution containing a combinations of each component was prepared from the stock solutions of each component (Composition 6P in Table 10) to provide amounts representing the weight ratio of each component to one another present in a composition of Example 1-B as shown below in Note 1 to Table 10. For comparison, a dilute stock solution of hydroquinone (Composition 6Q) was included. A 20-fold (20×) dilution (distilled water) of each stock solution was selected for the in vitro test to minimize or avoid cytotoxicity of melanocytes in the cell growth medium.
(§2) The methodology of Study I was repeated, except that the test was terminated after 72 hours for quantifying melanin pigmentation.

[2] = test system: B16 melanocytes; experiment: Melanin production/secretion in melanocytes, Study I; conditions: 48 hours incubation; for effect on pigmentation / inhibition of melanin production/secretion: 20X dilution of stock solutions
Description: This example illustrates the synergistic efficacy of the combination of the complexion modifying components (a) 4-hexylresorcinol, (b) niacinamide and (c) 1-amino-ethylphosphinic acid, compared to the effect of the individual components, based on an in vitro evaluation of melanin production/secretion in melanocytes. Components (a), (b) and (c) were evaluated individually and in combination with one another as described below in Studies I and II, and in Tables 9 and 10.
(§3) One set of aqueous stock solutions was prepared containing each component individually (as supplied) in an amount representing the active concentration present in a composition of Example 1-B (Compositions 6A-C in Table 9). A corresponding second and third set of stock solutions was prepared, respectively containing two-times (Compositions 6E-G in Table 9) and four-times (Compositions I-K in Table 9) the amount of the foregoing concentrations. Combinations of each component were prepared from the stock solutions of each component (Compositions. 6D, 6H, and 6L in Table 9) to provide amounts representing the weight ratio of each component to one another present (active basis) in a composition of Example 1-B as shown below in Notes 1-3 of Table 9. A 20-fold (20×) dilution (distilled water) of each stock solution was selected for the in vitro test to minimize or avoid cytotoxicity of melanocytes in the cell growth medium.
Component (c) as supplied is described in Note (a) to Table 2. As a positive control, stock solutions of kojic acid solutions were prepared at an active concentration of 2%, 0.5% and 0.1% to provide a concentration of 0.1%, 0.025% and 0.005%, respectively, at a 20× dilution. Distilled water was used as the negative control.
as §1

[3] = test system: B16 melanocytes; experiment: Melanin production/secretion in melanocytes, Study II; conditions: 20X dilution of dilute stock solutions; 72 hours
Description: as §1
Following the general procedure of Study I, a further set of dilute aqueous stock solutions was prepared containing each component individually (Compositions 6M-O in Table 10). […] For comparison, a dilute stock solution of hydroquinone (Composition 6Q) was included. A 20-fold (20×) dilution (distilled water) of each stock solution was selected for the in vitro test to minimize or avoid cytotoxicity of melanocytes in the cell growth medium.
Distilled water was used as the negative control. As a positive control for validating the test, a dilute stock solutions of kojic acid (0.2%, 0.04%) were prepared and a 20× dilution (0.01%, 0.002%) tested.
as §2

[4] = test system: B16 melanocytes; experiment: Cell numbers by sulforhodamine B method, Study I; conditions: 20X dilution of stock solutions; 48 hours incubation
Description: as §3, §1

CC(N)[PH](=O)O (stereo not shown) [1-amino-ethylphosphinic acid]
effect on cell numbers / cytotoxicity [1]: no inhibitory effect
effect on pigmentation / inhibition of melanin production/secretion [2]: no effect
inhibitory effect on pigmentation [3]: no inhibitory effect
effect on cell numbers / cytotoxicity [4]: no effect

CCCCCCc1ccc(O)cc1O [4-hexylresorcinol]
effect on cell numbers / cytotoxicity [1]: cytotoxic
effect on cell numbers / cytotoxicity [4]: cytotoxic or cytostatic

Oc1ccc(O)cc1 [hydroquinone]
inhibition of melanin production/secretion [3]: ≥ 50%

O=c1cc(CO)occ1O [kojic acid]
effect on cell numbers / cytotoxicity [1]: without significantly impacting cell proliferation
effect on pigmentation / inhibition of melanin production/secretion [2]: dose-dependent pigmentation-inhibitory effect
pigmentation expressed as % (water control 100%) ([2]; 20X dilution): 70-90%
inhibition of melanin production/secretion [3]: about 73%
effect on cell numbers / cytotoxicity [4]: without significantly impacting cell proliferation

NC(=O)c1cccnc1 [niacinamide]
effect on cell numbers / cytotoxicity [1]: no inhibitory effect
effect on pigmentation / inhibition of melanin production/secretion [2]: no effect
inhibitory effect on pigmentation [3]: no inhibitory effect
effect on cell numbers / cytotoxicity [4]: no effect
